# Tested on: skin surrounding the finger nail and the nail itself
# Test: Acidifying effect of salicylic acid paste in a fingerstall on skin and finger nail
# Format: in vivo
# Conditions: paste 2% w/w in fingerstall, about 12 hours, vs empty fingerstall
# Protocol: In a study designed to investigate the acidifying effect on the skin surrounding the finger nail as well as the nail itself a paste comprising salicylic acid at 2% w/w was inserted in a fingerstall. The fingerstall was applied over the top of the finger covering it tightly for about 12 hours. A completely empty stall covering another finger served as control for the same time period
# Upon scratching the nail surface with a sharp metal edge device, nail fragments (keratinized cells) were easily released in contrast to the nail at the finger covered with an empty fingerstall where the nail plate surface was hard.
compound,measurement,value
O=C(O)c1ccccc1O [salicylic acid],appearance of the skin after exposure,softening and loosening up of the skin
same,effect on the nail plate surface,loosened up the superficial outer nail plate layer

# From patent US20130089629A1, “KIT FOR THE TREATMENT OF ONYCHOMYCOSIS BY NITRIC OXIDE” (TOPICAL PHARMA AB, priority 2010, published 2013)
